What is called IC50 is the concentration that gives 50% inhibition. A lower IC50 goes with inhibition by little substance.

The first test has as its system KMS.12.BM cells. Briefly: KMS.12.BM cell viability assay (Cell Titer-GLO, ATP quantitation). Particulars: KMS-12-BM, 72 h; human myeloma cells, 3 days, concentration required for 50% cell death. The class given is cell-based. The protocol: Example B1: KMS.12.BM Cell Viability Assay
KMS.12.BM cell line (human myeloma) was purchased from JCRB (Osaka, Japan) and maintained in RPMI with 10% FBS culture medium. To measure the cytotoxic activity of the compounds through ATP quantitation, the KMS.12.BM cells are plated in the RPMI culture medium at 5000 cells/well/per 100 μL into a 96-well polystyrene clear black tissue culture plate (Greiner-bio-one through VWR, NJ), in the presence or absence of a concentration range of test compounds. After 3 days, […] Cell Titer-GLO Luminescent (Promega, Madison, Wis.) cell culture agent is added to each well for 10 minutes at room temperature to stabilize the luminescent signal. This determines the number of viable cells in culture based on quantitation of the ATP present, which signals the presence of metabolically active cells. Luminescence is measured with the Top Count 384 (Packard Bioscience through Perkin Elmer, Boston, Mass.). Compound inhibition is determined relative to cells cultured with no drug and the IC50 is reported as the compound concentration required for 50% cell death.
A general note: Cellular ATP, detected with luciferase, serves as a proxy for viable cell number.
As for `CC(C)C1Oc2c(cc(C(=O)N(C)C)cc2-c2cn(C)c(=O)c3[nH]ccc23)NC1=O` (centres unmarked) [Example 34, 2-isopropyl-N,N-dimethyl-8-(6-methyl-7-oxo-6,7-dihydro-1H-pyrrolo[2,3-c]pyridin-4-yl)-3-oxo-3,4-dihydro-2H-1,4-benzoxazine-6-carboxamide], the 50% inhibitory concentration (IC50) was ≤ 1000 nM. Regarding `CC(C)C1Oc2c(cc(C#N)cc2-c2cn(C)c(=O)c3[nH]ccc23)NC1=O` (centres unmarked) [Example 17, 2-isopropyl-8-(6-methyl-7-oxo-6,7-dihydro-1H-pyrrolo[2,3-c]pyridin-4-yl)-3-oxo-3,4-dihydro-2H-1,4-benzoxazine-6-carbonitrile], the IC50 is ≤ 1000 nM.

Consider `COc1cc2c(c(-c3cn(C)c(=O)c4[nH]ccc34)c1)OC(c1ccccc1)C(=O)N2` (single isomer, unassigned) [Example 24A, 6-methoxy-8-(6-methyl-7-oxo-6,7-dihydro-1H-pyrrolo[2,3-c]pyridin-4-yl)-2-phenyl-2H-1,4-benzoxazin-3(4H)-one], for which the IC50 was ≤ 1000 nM. `COc1cc2c(c(-c3cn(C)c(=O)c4[nH]ccc34)c1)OC(C(C)C)C(=O)N2` (single isomer, unassigned) [Example 9A, 2-isopropyl-6-methoxy-8-(6-methyl-7-oxo-6,7-dihydro-1H-pyrrolo[2,3-c]pyridin-4-yl)-2H-1,4-benzoxazin-3(4H)-one]: the IC50 is ≤ 1000 nM. For the compound `COc1cc2c(c(-c3cn(C)c(=O)c4[nH]ncc34)c1)OC(C1CCCC1)C(=O)N2` (single isomer, unassigned) [Example 42A, 2-cyclopentyl-6-methoxy-8-(6-methyl-7-oxo-6,7-dihydro-1H-pyrazolo[3,4-c]pyridin-4-yl)-2H-1,4-benzoxazin-3(4H)-one], the IC50 is ≤ 1000 nM. `CC(C)S(=O)(=O)c1cc(-c2cn(C)c(=O)c3[nH]ccc23)c2c(c1)N(C)C(=O)C(C)(C)O2` [Example 77, 6-(isopropylsulfonyl)-2,2,4-trimethyl-8-(6-methyl-7-oxo-6,7-dihydro-1H-pyrrolo[2,3-c]pyridin-4-yl)-2H-1,4-benzoxazin-3(4H)-one]: the IC50 is ≤ 1000 nM. For the compound `COc1cc2c(c(-c3cn(C)c(=O)c4[nH]ccc34)c1)OC(c1ccc(F)cc1Cl)C(=O)N2` (centres unmarked) [Example 25, 2-(2-chloro-4-fluorophenyl)-6-methoxy-8-(6-methyl-7-oxo-6,7-dihydro-1H-pyrrolo[2,3-c]pyridin-4-yl)-2H-1,4-benzoxazin-3(4H)-one], the IC50 is ≤ 1000 nM. In the case of `COc1cc2c(c(-c3cn(C)c(=O)c4[nH]ccc34)c1)OC(C1CCCC1)C(=O)N2` (single isomer, unassigned) [Example 35A, 2-Cyclopentyl-6-methoxy-8-(6-methyl-7-oxo-6,7-dihydro-1H-pyrrolo[2,3-c]pyridin-4-yl)-2H-1,4-benzoxazin-3(4H)-one], the IC50 is ≤ 1000 nM. As for `CCC1Oc2c(-c3cn(C)c(=O)c4[nH]ccc34)cccc2N(C)C1=O` (centres unmarked) [Example 8, 2-ethyl-4-methyl-8-(6-methyl-7-oxo-6,7-dihydro-1H-pyrrolo[2,3-c]pyridin-4-yl)-2H-1,4-benzoxazin-3(4H)-one], the IC50 was ≤ 1000 nM. For `CC(C)C1Oc2c(cc(S(C)(=O)=O)cc2-c2cn(C)c(=O)c3[nH]ccc23)NC1=O` (centres unmarked) [Example 44, 2-isopropyl-8-(6-methyl-7-oxo-6,7-dihydro-1H-pyrrolo[2,3-c]pyridin-4-yl)-6-(methylsulfonyl)-2H-1,4-benzoxazin-3(4H)-one], the IC50 was ≤ 1000 nM.

Staying with this test, now noted: human myeloma cells, 3 days, concentration required for 50% cell death.
For `CC(O)c1cc(-c2cn(C)c(=O)c3[nH]ccc23)c2c(c1)N(C)C(=O)C(C)(C)O2` (single isomer, unassigned) [Example 83B, 6-(1-hydroxyethyl)-2,2,4-trimethyl-8-(6-methyl-7-oxo-6,7-dihydro-1H-pyrrolo[2,3-c]pyridin-4-yl)-2H-1,4-benzoxazin-3(4H)-one], the IC50 was ≤ 1000 nM.

For the origin of these results see US10472358B2, “1H-pyrrolo[2,3-c]pyridin-7(6H)-ones and pyrazolo[3,4-c]pyridin-7(6H)-ones as inhibitors of BET proteins” (Incyte Corporation, priority 2014, dated 2019).
